Results on two molecules are retold here after US9359378B2, “Substituted oxazolo[3,4-a]pyrazines as pharmaceutcals” (BIOLAB SANUS FARMACÊUTICA LTDA., priority 2014, dated 2016).

One data set concerns the target T1, PDE1B (Homo sapiens, UniProt Q01064).
T1 construct: host or cells: Sf9
As to the kind of experiment: PDE1B enzyme inhibition (HTRF, cGMP substrate). The class given is biochemical. The following applies: human recombinant enzyme (Sf9); FIGS. 14 and 15; test concentration not given. As to the method: The effects of BL-230 and BL-236 compounds on the activity of PDE1B human enzymes were quantified by measuring the production of guanosine 5′-monophosphate (5′GMP) from cyclic guanosine monophosphate (cGMP), using human recombinant enzyme expressed in Sf9 cells, and the detection method was by using HTRF® (Homogeneous Time Resolved Fluorescence Technology).
The test compound, the reference compound or the water (control) were mixed with 0.07 U from the enzyme PDE1B in a buffer containing 44.4 mM Tris-hydroxymethyl aminomethane hydrochloride (Tris-HCl), 5.28 mM magnesium chloride (MgCl2), 0.88 mM calcium chloride (CaCl2), 2.64 mM dithiothreitol (DTT) and 0.198 U of calmodulin and 0.044% polysorbate 20 (Tween® 20) (pH 7.8). […] The fluorescence acceptor (Dye2 labeled cGMP) and fluorescence donor (anti-cGMP antibody labeled with europium cryptate) were added in the presence of 1 mM 3-isobutyl-1-methylxanthine (IBMX). After 60 minutes, the transfer of fluorescence corresponding to the amount of residual cGMP was measured at λex=337 nm, λem=620 nm and λem=665 nm using a microplate reader (RubyStar, BMG). The enzyme activity was determined by the signal division measured at 665 nm, by the measured signal at 620 nm (right). The results were expressed as a inhibition percentage of the control enzyme activity. […]
For orientation: TR-FRET usually uses a lanthanide donor and a delayed reading to cut background.

A further data set has as its target T2, PDE4A1A (Homo sapiens, UniProt P27815).
T2 construct: host or cells: Sf9
The experiment in a line: PDE4A1A enzyme inhibition (HTRF, cAMP substrate). The class given is biochemical. The following applies: human recombinant enzyme (Sf9); FIGS. 14 and 15; test concentration not given. The text has this: (§1) The effects of the BL-230 and BL-236 compounds on the activity of the human enzymes PDE2A1, PDE3A, PDE4A1A, PDE4B1, PDE7A, PDE8A1, and PDE10A2 and PDE11A4 were quantified by measuring the production of adenosine 5′-monophosphate (5′AMP) from cyclic adenosine monophosphate (cAMP), with human recombinant enzyme expressed in Sf9 cells and the detection method was by using HTRF®.
(§2) The test compound, the reference compound or water (control) were mixed with the enzyme (the enzymes and their amounts used are described in Table 1) in a buffer containing 44.4 mM Tris-HCl, 5.28 mM MgCl2, 2.64 mM DTT and 0.044% Tween® 20 (pH 7.8). Then, the reaction was initiated by the addition of 40 nM of cAMP substrate and the mixture was incubated for 30 minutes at room temperature. For basal control measurements, the enzyme was omitted from the reaction mixture. The fluorescence acceptor (Dye2 labeled cAMP) and fluorescence donor (anti-cAMP antibody labeled with europium cryptate) were added in the presence of 1 mM IBMX. After 60 minutes, the fluorescence corresponding to the amount of transfer residual cAMP was measured at λex=337 nm, λem=620 nm and λem=665 nm using a microplate reader (RubyStar, BMG). The enzyme activity was determined by the signal division measured at 665 nm, by the measured signal at 620 nm (right). The results were expressed as a inhibition percentage of the control enzyme activity. […]

The next data set addresses T3, PDE7A (Homo sapiens, UniProt Q13946).
T3 construct: host or cells: Sf9
The experiment in a line: PDE7A enzyme inhibition (HTRF, cAMP substrate). The class given is biochemical. The settings on record: human recombinant enzyme (Sf9); FIGS. 14 and 15; test concentration not given.
Source text: as §1, §2

A further data set deals with T4, PDE5 (Homo sapiens, UniProt O76074).
T4 construct: using an enzyme isolated from Cerep human platelets; tissue Cerep; host or cells: human platelets
As to the kind of experiment: PDE5 enzyme inhibition (SPA, enzyme isolated from human platelets). The class given is biochemical. The settings on record: FIGS. 14 and 15, test concentration not given. As to the method: The effects of compounds BL-230 and BL-236 on human PDE5 enzyme activity was quantified by measuring the production of 5′GMP from cGMP using an enzyme isolated from Cerep human platelets and the utilized detection method was scintillation proximity assay (SPA).
The test compound, the reference compound or water (control) were added to a buffer containing 40 mM Tris-HCl (pH 7.8), 3 mM MgCl2, 1.4 mM DTT, 0.21% BSA, 200 mM ammonium chloride (NH4Cl), 1 μM cGMP and 0.1 μCi of [^3H]cGMP. Then the reaction was started by adding the enzyme (final amount depending on the efficiency of the isolation) and the mixture was incubated for 60 minutes at 22° C. For basal control measurements, the enzyme was omitted from the reaction mixture. Following this, the SPA incubation beads were added. After 20 min at 22° C. under agitation, the amount of [^3H] 5′GMP was quantified with a scintillation counter (Topcount, Packard). The results were expressed as an inhibition percentage of the control enzyme activity. The standard inhibitory reference compound dipyridamole was used, which was tested in each experiment at several concentrations to obtain an inhibition curve from which its IC50 value was calculated. […]

T3 sequence (Q13946 whole entry): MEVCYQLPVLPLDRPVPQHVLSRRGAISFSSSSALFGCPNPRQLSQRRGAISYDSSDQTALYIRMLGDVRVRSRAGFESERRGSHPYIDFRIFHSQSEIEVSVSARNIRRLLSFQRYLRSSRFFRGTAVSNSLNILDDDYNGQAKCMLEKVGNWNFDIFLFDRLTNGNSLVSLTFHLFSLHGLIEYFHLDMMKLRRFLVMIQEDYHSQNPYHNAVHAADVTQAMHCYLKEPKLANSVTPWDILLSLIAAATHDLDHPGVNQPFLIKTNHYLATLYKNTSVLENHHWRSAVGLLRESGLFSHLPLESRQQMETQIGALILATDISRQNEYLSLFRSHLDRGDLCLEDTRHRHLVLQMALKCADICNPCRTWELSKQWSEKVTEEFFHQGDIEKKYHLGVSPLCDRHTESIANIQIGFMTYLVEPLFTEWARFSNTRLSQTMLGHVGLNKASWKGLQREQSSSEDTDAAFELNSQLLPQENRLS
T2 sequence (P27815 1-647 isoform P27815-4): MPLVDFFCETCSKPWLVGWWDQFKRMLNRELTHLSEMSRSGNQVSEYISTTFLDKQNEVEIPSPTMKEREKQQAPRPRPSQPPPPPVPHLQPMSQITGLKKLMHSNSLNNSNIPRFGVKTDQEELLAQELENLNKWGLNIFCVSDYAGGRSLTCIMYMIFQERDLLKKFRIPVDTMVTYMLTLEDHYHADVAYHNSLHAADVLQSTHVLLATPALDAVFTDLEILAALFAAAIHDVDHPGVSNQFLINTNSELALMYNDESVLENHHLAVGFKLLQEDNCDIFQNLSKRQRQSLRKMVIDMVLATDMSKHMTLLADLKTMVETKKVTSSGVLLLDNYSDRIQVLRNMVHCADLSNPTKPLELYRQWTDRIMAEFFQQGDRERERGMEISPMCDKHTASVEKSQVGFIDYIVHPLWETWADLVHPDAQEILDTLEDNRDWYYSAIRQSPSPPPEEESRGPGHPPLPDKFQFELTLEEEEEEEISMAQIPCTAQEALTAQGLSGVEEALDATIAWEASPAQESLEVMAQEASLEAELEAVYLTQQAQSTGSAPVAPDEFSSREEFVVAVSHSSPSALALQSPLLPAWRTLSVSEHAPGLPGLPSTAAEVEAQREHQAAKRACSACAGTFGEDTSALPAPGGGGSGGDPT

On to `O=C1C2=C(c3c[nH]c4ccccc34)OC(c3ccc4c(c3)OCO4)N2C(=O)CN1CCO` (stereo not shown) [BL-230, 3-(benzo[d][1,3]dioxol-5yl)-7-(2-hydroxyethyl)-1-(1H-indol-3-yl)-6,7-dihydro-3H-oxazolo[3,4-a]pyrazine-5,8-dione], for which the melting point – broadly, the temperature, or range, at which the solid turns liquid – lay within 254 to 258 °C. For the same molecule, the “inhibition of PDE1B enzyme activity” value at PDE1B was “did not inhibit”. In addition, at PDE4A1A, the “inhibition of PDE4A1A enzyme activity” value was “did not inhibit”. Besides, the “inhibition of PDE7A enzyme activity” value at PDE7A is recorded as “did not inhibit”. Further, the “inhibition of PDE5 enzyme activity” value at PDE5 is given as 90%.
With `C[C@@H](CO)N1CC(=O)N2C(=C(c3c[nH]c4ccccc34)OC2c2ccc3c(c2)OCO3)C1=O` (stereo partly drawn) [BL-236, 3-(benzo[d][1,3]dioxol-5yl)-7-((S)1-hydroxypropan-2yl)-1-(1H-indol-3-yl)-6,7-dihydro-3H-oxazolo[3,4-a]pyrazine-5,8-dione], the melting point fell in the range of 235 to 239 °C. Further, the “inhibition of PDE1B enzyme activity” value on PDE1B is reported as “did not inhibit”. Besides, the “inhibition of PDE4A1A enzyme activity” value at PDE4A1A is “did not inhibit”. For the same molecule, the “inhibition of PDE7A enzyme activity” value at PDE7A is on record as “did not inhibit”. For the same molecule, the “inhibition of PDE5 enzyme activity” value at PDE5 is on record as 86%.
